Patent publication US8207136B2, “Nucleoside compounds and methods of use thereof” (The Board of Trustees of the University of Illinois, priority 2005, dated 2012)

Assays:
[1] = tested on: wild type MRC-5 human fetal lung fibroblasts; test: Apoptosis and cell cycle assays in wild type MRC-5 fibroblasts; type: cell-based; conditions: for cell cycle profile: 20 μM
Description: (§1) Immunoblotting was performed as described with antibodies specific for p53 (sc-126 HRP; Santa Cruz), hdm2 (sc-965; Santa Cruz), p21 (556431; BD Pharmingen), Sp1 (sc-59; Santa Cruz), survivin (sc-10811; Santa Cruz), phospho RNA polymerase II (4735; Cell Signaling), total RNA polymerase II (8WG16; a gift from Dr. Schlegel, University of Illinois at Chicago), α-tubulin (T9026; Sigma), cleaved caspase-3 (9664; Cell Signaling), caspase-9 (9502; Cell Signaling) and β-actin (A5441; Sigma) antibodies.
Apoptosis was detected either by DAPI (4′,6-diamidino-2-phenylindole) staining or by Flow Cytometry after PI (Propidium Iodide) staining. For DAPI staining, all treatments (DMSO or ARC) were done in triplicates in 6-well plates and cells were stained with DAPI and visualized by fluorescent microscopy. Four random fields for each sample were photographed and at least 500 cells per field were counted to estimate apoptosis. The data is represented as mean±Standard deviation (sd).
For Flow Cytometry, cells were fixed in 70% ethanol and stored at −20° C. until further analysis. Equal numbers of fixed cells were then stained with PI solution (0.1% Triton X-100, 0.2 mg/ml DNase free RNase, 0.02 mg/ml propidium iodide) made in PBS for 15 min at 37° C. and analyzed by a flow cytometer.
The ability of ARC to induce apoptosis in wild type and SV40-transformed MRC-5 human fetal lung fibroblasts was evaluated. Twenty-four hours after treatment with ARC, transformed fibroblasts underwent robust apoptosis (around 50% and 70%, respectively, with 5 and 10 μM of ARC) (FIGS. 4A and B). […] The transformed cell types may be more dependent on the survivin levels for their survival than their wild type counterparts and thus the reduction in these levels could be lethal to these cells.
Moreover, the effect of 20 μM ARC treatment on wild type fibroblasts was analyzed and little change was found in the cell cycle profile after 24 hours (data not shown) and the cells undergo G2-arrest after 48 hours (FIG. 4D).

p53 [2] = test: Gel shift assay with purified p53 phosphorylated by P-TEFb; type: binding; conditions: purified p53, different concentrations
Description: (§2) Either purified p53 protein or nuclear extracts were used in the gel shift assays. For preparation of nuclear extracts, cells treated either with DMSO or different agents (doxorubicin, ARC and actinomycin D) were harvested 24 hours later and lysed in hypotonic buffer (10 mM HEPES pH 7.9, 1.5 mM MgCl2, 10 mM KCl, 0.2 mM PMSF, 0.5 mM DTT, 1 mM Na3VO4, 1 mM NaF, 1 mM Aprotinin and 1 mM Leupeptin), nuclei pelleted and treated with high-salt buffer (20 mM HEPES pH 7.9, 20% (v/v) glycerol, 1.5 mM MgCl2, 0.5 M KCl, 0.2 mM EDTA, 0.2 mM PMSF, 0.5 mM DTT, 1 mM Na3VO4, 1 mM NaF, 1 mM Aprotinin and 1 mM Leupeptin). Nuclear extracts (10 μg) or purified p53 protein (100 ng) were incubated with 0.5 ng of p53 consensus double-stranded oligos (5′-TACAGAACATGTCTAAGCATGCTGGGGACT-3′; Santa Cruz Biotechnology) that were labeled with [γ^32P]ATP. As a control, anti-p53 antibody (PAb421, EMD Biosciences) was used to supershift the p53/DNA complex. The reaction mixtures were resolved on a 4% acrylamide DNA-retardation gel, dried and exposed to X-ray film in the presence of intensifying screen.
In order to evaluate this activity, an in vitro kinase assay was performed with purified p53 protein and P-TEFb in the presence of different concentrations of ARC.

p53 [3] = test: Gel shift assay with nuclear extracts and p53 consensus probe; type: cell-based, human
Description: as §2
Although the effects of ARC were p53-independent, ARC did affect some properties of p53. […] This is in contrast to actinomycin D, which is known to enhance the DNA binding ability of p53 [22]. […] To determine if ARC retains p53 in the cytoplasm, which may lead to decreased binding in the gel shift assays, p53 levels in nuclear lysates were examined.

HUVECs = test: Motility assay with VEGF as chemoattractant; type: cell-based; conditions: Homo sapiens, HUVEC; 24 hours pretreatment, average from two trials; read-out: IC50, cell motility
Description: Different angiogenesis assays such as cord formation assay, motility assay and proliferation inhibition assay were performed at the developmental therapeutics program (DTP) branch of NCI (NCI/DTP) as described. HUVECs were used for all the assays. Taxol and TNP-470 were used as positive control for the assays.
For motility assay, HUVECs were pretreated for 24 hours with different concentrations ARC and used in the assay with vascular endothelial growth factor (VEGF) as a chemoattractant.

[4] = tested on: phospho-RNA polymerase II; test: Immunoblot of phospho-RNA polymerase II in HCT-116 cells; type: cell-based, human; conditions: 3 hours
Description: as §1
It is known that DRB and flavopiridol inhibit transcription by blocking the kinase activity of P-TEFb, which in turn leads to decreased phosphorylation of RNA polymerase II C-terminal domain (CTD). To determine if ARC operates by a similar mechanism, a kinase assay was performed with purified P-TEFb using GST-CTD (GST tagged C-terminal domain of RNA polymerase II) as the substrate. […] To evaluate this effect in vivo, HCT-116 cells were treated with ARC for 3 hours and analyzed levels of phospho-RNA polymerase II by immunoblotting. While the total amount of RNA polymerase II remained unchanged, phosphorylation of the RNA polymerase II CTD decreased upon ARC treatment (FIG. 2D), consistent with the in vitro kinase assay.

p53, p21, hdm2, survivin = test: Immunoblot of p53, p21, hdm2 and survivin levels in cancer cell lines; type: cell-based, human
Description: as §1
In order to find small molecule transcriptional inhibitors of p21, we generated LIM1215 colon cancer cells, carrying lacZ under the control of p21 promoter, as a screening system for testing ˜2000 structurally diverse compounds (Diversity Set) obtained from National Cancer Institute (NCI). […] To determine if these effects mediated by ARC were dose-dependent, we treated HCT-116 colon carcinoma cells with different concentrations of ARC.
In order to evaluate the extent to which the ARC-mediated repression of p21, hdm2 and survivin are p53-dependent, a pair of isogenic colon cancer cell lines was employed differing only in their p53 status—HCT-116 wild-type and HCT-116-p53^−/− cells (gift from Dr. Bert Vogelstein).

[5] = cancer cell lines of different origin, 10 μM, 24 hours

With NNc1c(C(N)=O)c2c(N)ncnc2n1[C@@H]1O[C@H](CO)[C@@H](O)[C@H]1O [ARC, 4-amino-6-hydrazino-7-beta-D-ribofuranosyl-7H-pyrrolo[2,3-d]-pyrimidine-5-carboxamide] the cell cycle profile ([1]; 24 hours) was “little change”, the cell cycle profile ([1]; 48 hours) was “G2-arrest” and the cell killing ([1]; 10 or 20 μM, 24 hours) was “not susceptible to ARC-mediated cell killing”. For the same compound, the “DNA binding of p53 phosphorylated by P-TEFb” value (p53 [2]) was “inhibited this process in a dose-dependent manner”, the “DNA binding ability of p53, agent alone” value (p53 [3]; MCF-7 nuclear extracts) was “did not influence the DNA binding ability of p53” and the “doxorubicin-induced DNA binding ability of p53” value (p53 [3]; nuclear extracts from HCT-116 and MCF-7 cells, with doxorubicin) was “inhibited the doxorubicin-induced DNA binding ability of p53”. For the same compound, the IC50 (HUVECs) was about 830 nM, the “phosphorylation of the RNA polymerase II CTD in cells” value [4] was “decreased” and the “p21, hdm2 and survivin levels, p53 dependence” value (p53, p21, hdm2, survivin; HCT-116-p53+/+ versus HCT-116-p53−/− cells) was “repressed irrespective of their p53 status”. The “p53, p21 and hdm2 levels, dose dependence” value (p53, p21, hdm2, survivin; HCT-116 colon carcinoma cells, increasing amounts, 24 hours) was “increased p53 but simultaneously repressed its target genes p21 and hdm2 in a dose-dependent manner”, the “p53 levels in nuclear extracts” value (p53, p21, hdm2, survivin; MCF-7 cells, ARC alone) was “highly induced” and the hdm2 levels (p53, p21, hdm2, survivin; [5]) was “downregulate hdm2”. For the same compound, the p21 levels (p53, p21, hdm2, survivin; [5]) was “repress p21 levels”, the p53 levels (p53, p21, hdm2, survivin; [5]) was “increased p53 levels” and the survivin levels (p53, p21, hdm2, survivin; [5]) was “downregulate”.
